“And” between values parts separate entries of the source, which are not always exact repeats. Equal entries are not always repeated. Where two headings read alike, the source gives them in different places.
Tests used:
[1] = tested on: S. aureus ATCC 29213 biofilm; experiment: biofilm inhibition assay (crystal violet); format: cell-based, Staphylococcus aureus; conditions: ≥80% inhibition of biofilm formation; for MBIC80 (minimum biofilm inhibitory concentration): 48 h
Protocol: (§1) The ability of compounds 1f, 1g, and 1h to inhibit biofilm growth and destroy the matured biofilm of S. aureus ATCC 29213 was investigated. The inhibitory activity was studied by the method with crystal violet. The activity to disrupt matured biofilm was evaluated as a decrease of metabolic activity using the MTT assay.
The plates were inoculated by inoculum of S. aureus ATCC 29213 grown in TSB + 2% glucose to exponential phase. Before the inoculation of the plate, the original inoculum was diluted to 1 McFarland and then 1:100 in fresh TSB + 2% glucose, to reach the final concentrations in the wells of […]. […] The plates were incubated at 37 °C for 48 h. After incubation, the contents of the wells were removed, and the plates were washed three times by sterile PBS. After drying, 125 μL of 0.5% crystal violet was added to each well and the plates were stained at room temperature for 20 min. Then the dye was removed, and the plates were washed three times by sterile PBS. The colored biofilm was detached from the wells using 33% solution of acetic acid. The absorbance at 595 nm was measured. As a blank, a non-inoculated plate treated in the same way was used. […] The minimum biofilm inhibitory concentration was the lowest concentration of the compounds, which inhibited the growth of 80% bacteria compared to the growth control. The experiment was made in duplicate and repeated at least three times.

[2] = tested on: vancomycin-resistant enterococci VRE 342B; experiment: MIC, broth microdilution; format: cell-based, Enterococcus faecalis; conditions: VRE1 = VRE 342B; for MIC: read-out: MICs
Protocol: (§2) The modified broth microdilution method was used for in vitro evaluation of minimum inhibitory concentration. A small portion of bacterial colony cultivated overnight onto nutrient agar (Oxoid, Basingstoke, UK) with 5% bovine blood was suspended in sterile phosphate-buffered saline to get cell density 0.5 McFarland. This inoculum was diluted to reach the final concentration of bacterial cells 5 × 10^5 CFU/mL in the wells. […] For plates with staphylococci, cation adjusted Mueller–Hinton (CaMH) broth (Oxoid) was used; enterococci were cultivated in brain heart infusion (BHI, Oxoid). […] A drug-free control and a sterility control were included. Inoculated plates were incubated in aerobic atmosphere at 37 °C overnight. […] After evaluation of MICs, 10 µL of aliquots from the wells were put onto Mueller–Hinton agar. The agar plates were cultivated at 37 °C for 24 h. The minimum bactericidal concentration (MBC) was defined as the lowest concentration of the compound that killed 99.9% of the bacteria compared to the starting inoculum.

[3] = tested on: vancomycin-resistant enterococci VRE 368; experiment: MIC, broth microdilution; format: cell-based, Enterococcus faecalis; conditions: VRE2 = VRE 368; for MIC: read-out: MICs
Protocol: as §2

[4] = tested on: vancomycin-resistant enterococci VRE 725B; experiment: MIC, broth microdilution; format: cell-based, Enterococcus faecalis; conditions: VRE3 = VRE 725B; for MIC: read-out: MICs
Protocol: as §2

E. faecalis ATCC 29212 = experiment: MIC, broth microdilution; format: cell-based, Enterococcus faecalis; conditions: EF = E. faecalis ATCC 29213
Protocol: as §2

S. aureus ATCC 29213 = experiment: MIC, broth microdilution; format: cell-based, Staphylococcus aureus
Protocol: as §2

[5] = tested on: methicillin-resistant S. aureus SA 3202; experiment: MIC, broth microdilution; format: cell-based, Staphylococcus aureus; conditions: MRSA3 = SA 3202; for MIC: read-out: MICs
Protocol: as §2

[6] = tested on: methicillin-resistant S. aureus 63718; experiment: MIC, broth microdilution; format: cell-based, Staphylococcus aureus; conditions: MRSA1 = S. aureus 63718; for MIC: read-out: MICs
Protocol: as §2

[7] = tested on: methicillin-resistant S. aureus SA 630; experiment: MIC, broth microdilution; format: cell-based, Staphylococcus aureus; conditions: MRSA2 = SA 630; for MIC: read-out: MICs
Protocol: as §2

[8] = tested on: S. aureus ATCC 29213 biofilm; experiment: biofilm susceptibility / eradication of preformed biofilm (MTT); format: cell-based, Staphylococcus aureus; conditions: for MBEC80 (minimum biofilm eradication concentration): 80% reduction of metabolic activity of preformed biofilm, 24 h
Protocol: as §1
Biofilms were grown as described above but without the presence of the compounds. After 48 h of incubation at 37 °C, the contents of the wells were removed, and the plates were washed three times by sterile PBS. After washing, 100 µL of tested compounds in CaMH were added to the wells. […] A growth control containing 2.5% of DMSO in CaMH was included. The plates were incubated at 37 °C for 24 h, then the solutions of compounds were removed, and the plates were gently washed three times by sterile PBS. Bacterial viability was analyzed using 100 µL of 0.05 mg/mL MTT (3-(4,5-dimethylthiazol-2-yl)- 2,5-diphenyltetrazolium bromide) in PBS in each well. The plates with MTT were incubated at 37 °C for 1–2 h in darkness, until the blue formazan crystals appeared. MTT solution was removed and the plates were washed once by PBS. Crystals of formazan were dissolved using 17% sodium dodecysulphate in 40% dimethylformamid. The absorbance at 570 nm was measured and the percentage of eradication was counted according to the equation (3) % of eradication = 100 − OD570S/OD570C × 100 where OD570S is the absorbance of the sample at 570 nm and OD570C is the absorbance of the growth control at 570 nm. The minimum biofilm eradication concentration was the lowest concentration of the compound, which reduced the metabolic activity of the biofilm by 80% compared to the growth control. The experiment was made in duplicate and repeated at least three times.

[9] = tested on: human monocytic leukemia THP-1 cells; experiment: in vitro antiproliferative assay (WST-1); format: cell-based; conditions: THP-1 cells, WST-1, 24 h, read-out: Tox IC50
Protocol: The preliminary in vitro screening of the antiproliferative effect of the investigated compounds was performed using a Water Soluble Tetrazolium salts-1 (WST-1) assay kit and a human monocytic leukemia THP-1 cell line by means of the method described recently. The principle of the WST-1 assay kit is the […] mitochondrial dehydrogenases by antiproliferative compounds. The activity of this enzyme directly correlates with the number of metabolically active cells in the culture. The antiproliferative effect was evaluated as the IC50 value (the concentration of the compound causing 50% inhibition of cell proliferation).
Human monocytic leukemia THP-1 cells were used for in vitro antiproliferative assay. Cells were obtained from the European Collection of Cell Cultures (ECACC, Salisbury, UK) and routinely cultured in RPMI (Roswell Park Memorial Institute) 1640 medium supplemented with 10% fetal bovine serum, 2% L-glutamine, 1% penicillin, and streptomycin at 37 °C with 5% CO2. Cells were passaged at approximately one-week intervals. The antiproliferative activity of the compounds was determined using a Water Soluble Tetrazolium Salts-1 (WST-1, 2-(4-iodophenyl)-3-(4-nitrophenyl)-5-(2,4-disulfophenyl)-2H-tetrazolium) assay kit (Roche Diagnostics, Mannheim, Germany) according to the manufacturer’s instructions. The tested compounds were dissolved in DMSO and added in various compound concentrations to the cell suspension in the culture RPMI 1640 medium. The maximum concentration of DMSO in the assays never exceeded 0.1%. Subsequently, the cells were incubated at 37 °C with 5% CO2 for 24 h. For WST-1 assays, cells were seeded into 96-well plates (5 × 10^4 cells/well in 100 μL culture medium) in triplicate in serum-free RPMI 1640 medium, and measurements were taken 24 h after the treatment with the compounds. The median inhibition concentration values, IC50, were deduced through the production of a dose-response curve. All data were evaluated using GraphPad Prism 5.00 software (GraphPad Software, San Diego, CA, USA).

VRE 368 = experiment: synergy with antibiotics (FIC index, checkerboard); format: cell-based, Enterococcus faecalis; conditions: Enterococcus, VRE, VRE 368; tested compound/antibiotic; read-out: MIC of each antibacterial drug alone observed in the synergy experiment
Description: (§3) Representatives from various classes were chosen in order to study the potential difference in synergistic activity according to the diverse mechanisms of action and resistance of these drugs. The method of minimal fractional inhibitory concentration (FIC) index (FICI) in a microtitration plate was used. FICI ≤ 0.5 means synergy; 0.5 < FICI < 1 means additivity; 1 ≤ FICI < 4 means indifference; and FICI ≥ 4 means antagonism.
(§4) For synergy effect study, a method of fractional inhibitory concentration was used. […] Raw H was used for the evaluation of MIC(A); column 12 was used for evaluation of MIC(B). The plate was inoculated by the bacterial suspension to reach final concentration of 5 × 10^5 CFU/mL in the wells. The fractional inhibitory concentration (FIC) index was calculated using the concentrations in the first nonturbid (clear) well found in each row and column along the turbidity/nonturbidity interface. To interpret the combined effect, the lowest FICI was used. A ΣFIC ≤ 0.5 means synergy; 0.5 < ΣFIC < 1 means additivity; 1 ≤ ΣFIC < 4 means indifference; and ΣFIC ≥ 4 means antagonism. The tests were made in duplicate, and the results were averaged.

VRE 342B = experiment: synergy with antibiotics (FIC index, checkerboard); format: cell-based, Enterococcus faecalis; conditions: VRE 342B
Description: as §3, §4

VRE 725B = experiment: synergy with antibiotics (FIC index, checkerboard); format: cell-based, Enterococcus faecalis; conditions: Enterococcus
Description: as §3
The used VRE strains were isolated from American crows by Oravcova et al., and their genetic profiles were characterized. All the VRE strains were carrying genes vanA, tetM, and ermB. Strains VRE 368 and VRE 725B carried gene aac, which provided acquired aminoglycoside resistance.
as §4

[10] = Enterococcus faecalis, ATCC 29212 / ATCC 29213
[11] = Staphylococcus aureus, ATCC29213, SA = S. aureus ATCC 29213, read-out: MICs
[12] = Staphylococcus aureus, ATCC29213, Table 7, planktonic cells of S. aureus ATCC 29213, read-out: MIC

Compound	MBIC80 (minimum biofilm inhibitory concentration) [1] [µg/mL]	MIC ([2]; Enterococcus)	MIC ([3]; Enterococcus)	MIC ([4]; Enterococcus)	MIC (E. faecalis ATCC 29212; [10])	MIC (S. aureus ATCC 29213; [11])	MIC (S. aureus ATCC 29213; [12]) [µg/mL]	MIC ([5]; Staphylococcus aureus)	MIC ([6]; Staphylococcus aureus)	MIC ([7]; Staphylococcus aureus)	MBEC80 (minimum biofilm eradication concentration) [8] [µg/mL]	IC50 ([9]; Homo sapiens, THP-1, 24 h) [nM]	other results
CCCCCCCCCCCCCCCC[N+](C)(C)Cc1ccccc1 [CTC, cetalkonium chloride, reference compound]	0.25	0.5 µg/mL and 1.26 µM	0.5 µg/mL and 1.26 µM	0.5 µg/mL and 1.26 µM	1 µg/mL and 2.53 µM	0.25 µg/mL and 0.63 µM	0.25	1 µg/mL and 2.53 µM	0.25 µg/mL and 0.63 µM	0.5 µg/mL and 1.26 µM	>256	1290 ± 70	activity on preformed biofilm [8]: did not show any activity on preformed biofilm
CNC(C)C1CCC(N)C(OC2C(N)CC(N)C(OC3OCC(C)(O)C(NC)C3O)C2O)O1 (centres unmarked) [GEN, gentamicin, reference compound]													MIC (VRE 368): 64 µg/mL; MIC (VRE 342B; Enterococcus, tested compound/antibiotic, read-out: MIC of each antibacterial drug alone observed in the synergy experiment): 32 µg/mL; concentrations of the tested compound/clinically used antibiotic providing additivity or synergy (VRE 342B; in the combination of that line): 8 µg/mL; MIC (VRE 725B): > 2000 µg/mL
CCN(CC)CCOC(=O)c1ccc(N)cc1 [PRC, procaine, reference compound]	>256	> 256 µg/mL and > 1080 µM	> 256 µg/mL and > 1080 µM	> 256 µg/mL and > 1080 µM	> 256 µg/mL and > 1080 µM	> 256 µg/mL and > 1080 µM	> 256	> 256 µg/mL and > 1080 µM	> 256 µg/mL and > 1080 µM	> 256 µg/mL and > 1080 µM	>256	> 300000	
CCCCNc1ccc(C(=O)OCCN(C)C)cc1 [TEC, tetracaine, reference compound]	>256	> 256 µg/mL and > 968 µM	> 256 µg/mL and > 968 µM	> 256 µg/mL and > 968 µM	> 256 µg/mL and > 968 µM	> 256 µg/mL and > 968 µM	> 256	> 256 µg/mL and > 968 µM	> 256 µg/mL and > 968 µM	> 256 µg/mL and > 968 µM	>256	224000 ± 6520	
carbethopendecinium bromide [CRB, reference compound]	0.25										64		minimum biofilm inhibitory concentration relative to MIC against planktonic cells [1]: comparable to its MIC; MICs [2]: 0.5 µg/mL; MIC [2]: 1.18 µM; MICs [3]: 0.25 µg/mL; MIC [3]: 0.59 µM; MICs [4]: 0.5 µg/mL; MIC [4]: 1.18 µM; MIC (E. faecalis ATCC 29212): 1.18 µM; MICs (E. faecalis ATCC 29212): 0.5 µg/mL; MICs (S. aureus ATCC 29213; SA = S. aureus ATCC 29213): 0.25 µg/mL; MIC (S. aureus ATCC 29213; SA = S. aureus ATCC 29213, read-out: MICs): 0.59 µM; MIC (S. aureus ATCC 29213; Table 7, planktonic cells of S. aureus ATCC 29213): 0.25 µg/mL; MICs [5]: 2 µg/mL; MIC [5]: 4.73 µM; MICs [6]: 0.25 µg/mL; MIC [6]: 0.59 µM; MICs [7]: 0.5 µg/mL; MIC [7]: 1.18 µM; IC50 [9]: 1730 ± 80 nM

Source: paper PMC7168207, “Dibasic Derivatives of Phenylcarbamic Acid as Prospective Antibacterial Agents Interacting with Cytoplasmic Membrane” (Antibiotics, 2020)
